According to patent publication US12012411B2, “Viral replication inhibitors” (Katholieke Universiteit Leuven, priority 2011, dated 2024):

System: DENV-2 NGC
Assay: Antiviral activity against DENV-2 NGC in Vero-B cells (viral RNA load by RT-qPCR)
Type: cell-based, Dengue virus
Details: Dengue virus, DENV2, Vero B, DENV-2 in Vero-B cells; inhibition of viral RNA replication by 50% (Table 3)

| SMILES | EC50 |
| --- | --- |
| COc1cncc(NC(C(=O)c2c[nH]c3cc(F)ccc23)c2ccccc2)c1 (stereo not shown) [CPD-157] | 50 nM |
| COc1cncc(NC(C(=O)c2c[nH]c3ccccc23)c2ccc(OC)nc2)c1 (stereo not shown) [CPD-158] | 90 nM |
| COc1cncc(NC(C(=O)c2c[nH]c3ccccc23)c2ccc(C#N)cc2)c1 (stereo not shown) [CPD-159] | 110 nM |
| COc1cccc(NC(C(=O)c2nn(C)c3ccccc23)c2ccccc2)c1 (stereo not shown) [CPD-203] | 730 nM |
| COc1cc(NC(C(=O)c2c[nH]c3ccc(F)cc23)c2ccc(OC)nc2)cc(OC)c1 (stereo not shown) [CPD-206] | 20 nM |
| COc1cccc(NC(C(=O)c2c[nH]c3cc(F)ccc23)c2ccc(OC)nc2)c1 (stereo not shown) [CPD-213] | 60 nM |
| COc1cccc(NC(C(=O)c2c[nH]c3ccccc23)c2ccc(F)nc2)c1 (stereo not shown) [CPD-214] | 30 nM |
| COc1cccc(NC(C(=O)c2c[nH]c3c(OC)cccc23)c2ccccc2)c1 (stereo not shown) [CPD-222] | 130 nM |
| COc1cccc(NC(C(=O)c2c[nH]c3ccc(S(C)(=O)=O)cc23)c2ccccc2)c1 (stereo not shown) [CPD-229] | 2400 nM |
| COc1cc(NC(C(=O)c2c[nH]c3nc(C)ccc23)c2ccccc2)cc(OC)c1 (stereo not shown) [CPD-232] | 100 nM |
| COc1cc(NC(C(=O)c2c[nH]c3ccccc23)c2ccc(C#N)cc2)cc(OC)c1 (stereo not shown) [CPD-233] | 10 nM |

System: DENV-1 Djibouti strain D1/H/IMTSSA/98/606
Assay: Antiviral activity against DENV-1 in Vero-B cells (viral RNA load by RT-qPCR)
Type: cell-based, Dengue virus
Details: Dengue virus, DENV1, Vero B

| SMILES | EC50 |
| --- | --- |
| COc1cncc(NC(C(=O)c2c[nH]c3cc(F)ccc23)c2ccccc2)c1 (stereo not shown) [CPD-157] | 1310 nM |
| COc1cncc(NC(C(=O)c2c[nH]c3ccccc23)c2ccc(OC)nc2)c1 (stereo not shown) [CPD-158] | 2500 nM |
| COc1cncc(NC(C(=O)c2c[nH]c3ccccc23)c2ccc(C#N)cc2)c1 (stereo not shown) [CPD-159] | 1480 nM |
| COc1cccc(NC(C(=O)c2nn(C)c3ccccc23)c2ccccc2)c1 (stereo not shown) [CPD-203] | 5090 nM |
| COc1cc(NC(C(=O)c2c[nH]c3ccc(F)cc23)c2ccc(OC)nc2)cc(OC)c1 (stereo not shown) [CPD-206] | 370 nM |
| COc1cccc(NC(C(=O)c2c[nH]c3cc(F)ccc23)c2ccc(OC)nc2)c1 (stereo not shown) [CPD-213] | 810 nM |
| COc1cccc(NC(C(=O)c2c[nH]c3ccccc23)c2ccc(F)nc2)c1 (stereo not shown) [CPD-214] | 150 nM |
| COc1cccc(NC(C(=O)c2c[nH]c3c(OC)cccc23)c2ccccc2)c1 (stereo not shown) [CPD-222] | 1810 nM |
| COc1cccc(NC(C(=O)c2c[nH]c3ccc(S(C)(=O)=O)cc23)c2ccccc2)c1 (stereo not shown) [CPD-229] | 2810 nM |
| COc1cc(NC(C(=O)c2c[nH]c3nc(C)ccc23)c2ccccc2)cc(OC)c1 (stereo not shown) [CPD-232] | 850 nM |
| COc1cc(NC(C(=O)c2c[nH]c3ccccc23)c2ccc(C#N)cc2)cc(OC)c1 (stereo not shown) [CPD-233] | 220 nM |

System: DENV-3 strain H87 prototype
Assay: Antiviral activity against DENV-3 in Vero-B cells (viral RNA load by RT-qPCR)
Type: cell-based, Dengue virus
Details: Dengue virus, DENV3, Vero B

| SMILES | EC50 |
| --- | --- |
| COc1cncc(NC(C(=O)c2c[nH]c3cc(F)ccc23)c2ccccc2)c1 (stereo not shown) [CPD-157] | 850 nM |
| COc1cncc(NC(C(=O)c2c[nH]c3ccccc23)c2ccc(OC)nc2)c1 (stereo not shown) [CPD-158] | 2190 nM |
| COc1cncc(NC(C(=O)c2c[nH]c3ccccc23)c2ccc(C#N)cc2)c1 (stereo not shown) [CPD-159] | 3160 nM |
| COc1cccc(NC(C(=O)c2nn(C)c3ccccc23)c2ccccc2)c1 (stereo not shown) [CPD-203] | 5060 nM |
| COc1cc(NC(C(=O)c2c[nH]c3ccc(F)cc23)c2ccc(OC)nc2)cc(OC)c1 (stereo not shown) [CPD-206] | 670 nM |
| COc1cccc(NC(C(=O)c2c[nH]c3cc(F)ccc23)c2ccc(OC)nc2)c1 (stereo not shown) [CPD-213] | 2540 nM |
| COc1cccc(NC(C(=O)c2c[nH]c3ccccc23)c2ccc(F)nc2)c1 (stereo not shown) [CPD-214] | 990 nM |
| COc1cccc(NC(C(=O)c2c[nH]c3c(OC)cccc23)c2ccccc2)c1 (stereo not shown) [CPD-222] | 3270 nM |
| COc1cccc(NC(C(=O)c2c[nH]c3ccc(S(C)(=O)=O)cc23)c2ccccc2)c1 (stereo not shown) [CPD-229] | 43000 nM |
| COc1cc(NC(C(=O)c2c[nH]c3nc(C)ccc23)c2ccccc2)cc(OC)c1 (stereo not shown) [CPD-232] | 2690 nM |
| COc1cc(NC(C(=O)c2c[nH]c3ccccc23)c2ccc(C#N)cc2)cc(OC)c1 (stereo not shown) [CPD-233] | 1290 nM |

System: DENV-4 strain Dak HD 34 460
Assay: Antiviral activity against DENV-4 in Vero-B cells (viral RNA load by RT-qPCR)
Type: cell-based, Dengue virus
Details: Dengue virus, DENV4, Vero B

| SMILES | EC50 |
| --- | --- |
| COc1cncc(NC(C(=O)c2c[nH]c3cc(F)ccc23)c2ccccc2)c1 (stereo not shown) [CPD-157] | 5100 nM |
| COc1cncc(NC(C(=O)c2c[nH]c3ccccc23)c2ccc(OC)nc2)c1 (stereo not shown) [CPD-158] | 7200 nM |
| COc1cncc(NC(C(=O)c2c[nH]c3ccccc23)c2ccc(C#N)cc2)c1 (stereo not shown) [CPD-159] | 6860 nM |
| COc1cccc(NC(C(=O)c2nn(C)c3ccccc23)c2ccccc2)c1 (stereo not shown) [CPD-203] | 5320 nM |
| COc1cc(NC(C(=O)c2c[nH]c3ccc(F)cc23)c2ccc(OC)nc2)cc(OC)c1 (stereo not shown) [CPD-206] | 1520 nM |
| COc1cccc(NC(C(=O)c2c[nH]c3cc(F)ccc23)c2ccc(OC)nc2)c1 (stereo not shown) [CPD-213] | 2850 nM |
| COc1cccc(NC(C(=O)c2c[nH]c3ccccc23)c2ccc(F)nc2)c1 (stereo not shown) [CPD-214] | 4160 nM |
| COc1cccc(NC(C(=O)c2c[nH]c3c(OC)cccc23)c2ccccc2)c1 (stereo not shown) [CPD-222] | 3140 nM |
| COc1cccc(NC(C(=O)c2c[nH]c3ccc(S(C)(=O)=O)cc23)c2ccccc2)c1 (stereo not shown) [CPD-229] | 7550 nM |
| COc1cc(NC(C(=O)c2c[nH]c3nc(C)ccc23)c2ccccc2)cc(OC)c1 (stereo not shown) [CPD-232] | 1150 nM |
| COc1cc(NC(C(=O)c2c[nH]c3ccccc23)c2ccc(C#N)cc2)cc(OC)c1 (stereo not shown) [CPD-233] | 3090 nM |

System: not listed separately
Assay: in vitro
Details: African green monkey, uninfected quiescent Vero-B cells

| SMILES | CC50 at 4 days |
| --- | --- |
| COc1cncc(NC(C(=O)c2c[nH]c3cc(F)ccc23)c2ccccc2)c1 (stereo not shown) [CPD-157] | 15000 nM |
| COc1cncc(NC(C(=O)c2c[nH]c3ccccc23)c2ccc(OC)nc2)c1 (stereo not shown) [CPD-158] | 63000 nM |
| COc1cncc(NC(C(=O)c2c[nH]c3ccccc23)c2ccc(C#N)cc2)c1 (stereo not shown) [CPD-159] | 67000 nM |
| COc1cccc(NC(C(=O)c2nn(C)c3ccccc23)c2ccccc2)c1 (stereo not shown) [CPD-203] | > 134000 nM |
| COc1cc(NC(C(=O)c2c[nH]c3ccc(F)cc23)c2ccc(OC)nc2)cc(OC)c1 (stereo not shown) [CPD-206] | 12000 nM |
| COc1cccc(NC(C(=O)c2c[nH]c3cc(F)ccc23)c2ccc(OC)nc2)c1 (stereo not shown) [CPD-213] | 15000 nM |
| COc1cccc(NC(C(=O)c2c[nH]c3ccccc23)c2ccc(F)nc2)c1 (stereo not shown) [CPD-214] | 16000 nM |
| COc1cccc(NC(C(=O)c2c[nH]c3c(OC)cccc23)c2ccccc2)c1 (stereo not shown) [CPD-222] | > 129000 nM |
| COc1cccc(NC(C(=O)c2c[nH]c3ccc(S(C)(=O)=O)cc23)c2ccccc2)c1 (stereo not shown) [CPD-229] | > 115000 nM |
| COc1cc(NC(C(=O)c2c[nH]c3nc(C)ccc23)c2ccccc2)cc(OC)c1 (stereo not shown) [CPD-232] | > 125000 nM |
| COc1cc(NC(C(=O)c2c[nH]c3ccccc23)c2ccc(C#N)cc2)cc(OC)c1 (stereo not shown) [CPD-233] | 11000 nM |
